Values of other authors as cited in patent publication EP0279688B1, “Methods and compositions for the use of HIV env polypeptides and antibodies thereto” (GENENTECH, INC., priority 1987, dated 1988).

System: viral replication
Details: Mitsuya and Broder, 1985

## Cc1cn([C@H]2C[C@H](N=[N+]=[N-])[C@@H](CO)O2)c(=O)[nH]c1=O [AZT]
  concentrations inhibiting viral replication: 50-500 µm

## Nc1ccn([C@H]2CC[C@@H](CO)O2)c(=O)n1 [DDC]
  concentrations inhibiting viral replication: 50-500 µm
